Measurements: US20030212100A1, “Quinoline derivatives and medicinal use thereof” (priority 2000, published 2003)
Structures can show the parent of a compound that is named as a salt.

Columns and labels:
human PPARγ receptor = molecular target: T1, human PPARγ receptor (Homo sapiens, UniProt P37231); experiment: Luciferase reporter assay of PPARγ agonist activity (Gal4-PPARγ chimera receptor in CV-1 cells); type: cell-based; conditions: for Emax at 0.1 µM: CV-1, 0.1 μM compound; for Emax at 0.1 µM / Emax at 1 µM / Emax at 10 µM: luciferase activity with 1 μM Pioglitazone taken as 100, read-out: PPAR γ agonist activity, relative activity; for Emax at 1 µM: CV-1, 1 μM compound; for Emax at 10 µM: CV-1, 10 μM compound; for PPAR γ agonist activity, relative activity: luciferase activity with 1 μM Pioglitazone taken as 100
T1 construct: corresponding to Ser204-Tyr506 for human PPARγ1 receptor and human PPARγ2; expressed in transfected cells; host or cells: CV-1 cells (pSG5-based expression vector)
T1 sequence (P37231 204-505 limits assumed): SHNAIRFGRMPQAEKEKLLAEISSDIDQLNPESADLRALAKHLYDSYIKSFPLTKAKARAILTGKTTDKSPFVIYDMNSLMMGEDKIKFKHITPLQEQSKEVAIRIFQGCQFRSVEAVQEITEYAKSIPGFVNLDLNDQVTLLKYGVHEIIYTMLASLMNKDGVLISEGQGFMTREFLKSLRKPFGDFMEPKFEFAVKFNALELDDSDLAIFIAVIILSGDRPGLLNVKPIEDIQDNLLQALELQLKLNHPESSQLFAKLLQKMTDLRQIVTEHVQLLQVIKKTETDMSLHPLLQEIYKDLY
Method: (§1) Measurement of PPARα Agonist Activity and PPARγ Agonist Activity
(§2) 1. Materials for Assay of Luciferase Using Human PPARα and PPARγ Receptors
(§3) The entire procedure was carried out according to the fundamental methods of genetic engineering and the ordinary method in the yeast one-hybrid or two-hybrid system was applied.
(§4) PGL2-UAS5-TK-luc was prepared as a reporter plasmid carrying a response sequence of Gal4 protein as a basic transcription factor of yeast, an enhancer sequence with five repeat part of UAS, a luciferase gene (luc) under the control of timidine kinase (TK) promoter. Specifically, a DNA fragment encoding a TK promoter (−105/+51) on the downstream side of an enhancer sequence comprising two time repeat of UAS was amplified by PCR using pRL-TK carrying a TK promoter (Promega, Trade name: Catalogue No. E2241) as the template and the primers: […]
(§5) After the fragment was cleaved with XhoI-Hind III, pGL2-UAS2-TK-luc was obtained by inserting the resultant fragment into the XhoI-Hind III site located on the upstream side of a luciferase structural gene on pGL2-Basic vector (Promega, Trade name: Catalogue No. E1641).
(§6) After cleavage of a synthetic DNA as an enhancer sequence comprising three time repeat of Gal4 response sequence (SEQ ID NO: 3): 5′-ATTGGTAC([…])×3 AGATCTCGAC) using KpnI and BgIII was carried out, pGL2-UAS5-TK-luc was prepared by inserting the resulting fragment into the KpnI-BgIIIb site of pGL2-UAS2-TK-luc.
(§7) A vector for expression of a chimera receptor protein, in which a ligand binding region of an internuclear receptor human PPARα or PPARγ receptor was fused with the carboxyl terminal of a DNA binding region of yeast Ga14 protein, was prepared as follows:
(§8) The structural gene of pSG5 (STRATAGENE, Trade Name: Catalogue No. 216201) as the basic expression vector was changed for the chimera receptor except that the promoter-enhancer region was maintained as it was.
(§9) The DNA encoding the ligand binding region of the human PPARα or PPARγ receptor was fused on the downstream side of the DNA encoding the DNA binding region and the amino acid sequence from 1 to 147 positions of Ga14 protein so that their reading frames were fitted and the resulting fused DNA was inserted into pSG5 (trade name) on the down stream side of the promoter-enhancer region. In this step, the DNA sequence was arranged so that a signal for transfer into the nucleus (Ala Pro Lys Lys Lys Arg Lys Val Gly (SEQ ID: No: 4) derived from SV-40T antigen was located on the amino terminal of the ligand binding region of PPARα or PPARγ receptor in order to localize the chimera receptor in the nucleus.
(§10) Based on comparison of the human PPAR receptors described in R. Mukherjee et al., [see J. Steroid Biochem. Molec. Biol., Vol. 51, p157 (1994)] and M. E. Green et al., [see Gene Expression, Vol. 4, p281 (1995))], as the structural gene part used for the ligand binding region PPARα or PPARγ, the human PPARα ligand binding region: Ser167-Tyr468; and the PPARγ ligand binding region: Ser176-Tyr478 were used, which had the same sequences corresponding to Ser204-Tyr506 for human PPARγ1 receptor and human PPARγ2, respectively.
(§11) In order to monitor influence against the basic transcription, an expression vector was prepared which carried a DNA encoding only the DNA binding region and the amino acid sequence from 1 to 147 position of Ga14 protein defective in its PPAR ligand binding region and a signal for transfer into the nucleus of SV-40T-antigen.
(§12) 2. Assay of Luciferase Using Human PPARα or PPARγ Receptor
(§13) CV-1 cells used as a host cell were cultivated according to an ordinary method. Specifically, a fetal bovine serum (Intergent, Catalogue No. 1020-90) was added to a Dulbecco's modified Eagle's medium (DMEM) so that the final concentration became 10%. Further, penicillin G (50 U/ml) and streptomycin sulfate (50 μg/ml) were added. Cultivation was conducted in the resulting medium in a 5% carbon dioxide gas at 37° C. […]

human PPARα receptor = molecular target: T2, human PPARα receptor (Homo sapiens, UniProt Q07869); experiment: Luciferase reporter assay of PPARα agonist activity (Gal4-PPARα chimera receptor in CV-1 cells); type: cell-based; conditions: for Emax at 0.1 µM: CV-1, 0.1 μM compound; for Emax at 0.1 µM / Emax at 1 µM / Emax at 10 µM: luciferase activity with 10 μM Wy-14,643 taken as 100, read-out: PPARα agonist activity, relative activity; for Emax at 1 µM: CV-1, 1 μM compound; for Emax at 10 µM: CV-1, 10 μM compound; for PPARα agonist activity, relative activity: luciferase activity with 10 μM Wy-14,643 taken as 100
T2 construct: expressed in transfected cells; host or cells: CV-1 cells (pSG5-based expression vector)
T2 sequence (Q07869 167-468): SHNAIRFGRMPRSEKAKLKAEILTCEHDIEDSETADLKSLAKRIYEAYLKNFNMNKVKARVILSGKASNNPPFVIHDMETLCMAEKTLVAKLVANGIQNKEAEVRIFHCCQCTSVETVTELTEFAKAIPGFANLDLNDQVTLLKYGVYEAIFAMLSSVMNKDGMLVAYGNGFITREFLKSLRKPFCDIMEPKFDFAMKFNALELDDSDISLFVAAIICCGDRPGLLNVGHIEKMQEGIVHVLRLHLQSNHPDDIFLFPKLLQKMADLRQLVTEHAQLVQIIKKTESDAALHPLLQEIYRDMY
Method: as §1, §2, §3, §4, §5, §6, §7, §8, §9, §10, §11, §12, §13

Compound: CCOC(=O)C(Cc1ccc(OC)c(OCc2cnc3ccc(OC)cc3c2OC(C)C)c1)C(=O)OCC [Example 28 (129), diethyl{[3-(4-isopropoxy-6-methoxyquinoline-3-yl)methyloxy]-4-methoxyphenyl}methylmalonate hydrochloride]
- Emax at 0.1 µM (human PPARγ receptor): 1.3%
- Emax at 1 µM (human PPARγ receptor): 2.1%
- Emax at 10 µM (human PPARγ receptor): 14.7%

Compound: CCCCCCCCOc1c(COc2ccc(CC(OCC)C(=O)O)cc2)cnc2ccc(OC)cc12 (stereo not drawn) [Example 7 (63), 2-ethoxy-3-{[4-(4-octyloxy-6-methoxyquinoline-3-yl)methyloxy]phenyl}propanoic acid]
- Emax at 0.1 µM (human PPARα receptor): 0.4%
- Emax at 1 µM (human PPARα receptor): 4.5%
- Emax at 10 µM (human PPARα receptor): 64.4%
- Emax at 0.1 µM (human PPARγ receptor): 13.5%
- Emax at 1 µM (human PPARγ receptor): 63.3%
- Emax at 10 µM (human PPARγ receptor): 114%

Compound: CCOC(Cc1ccc(OCc2cnc3c(F)cccc3c2OC(C)C)cc1)C(=O)O (stereo not drawn) [Example 15 (82), 2-ethoxy-3-{[4-(8-fluoro-4-isopropoxyquinoline-3-yl)methyloxy]phenyl}propanoic acid]
- Emax at 0.1 µM (human PPARα receptor): 0.3%
- Emax at 1 µM (human PPARα receptor): 0.3%
- Emax at 10 µM (human PPARα receptor): 5%
- Emax at 0.1 µM (human PPARγ receptor): 52.3%
- Emax at 1 µM (human PPARγ receptor): 133%
- Emax at 10 µM (human PPARγ receptor): 125%

Compound: CCOC(Cc1ccc(OCc2cc(OC)c3ccccc3n2)cc1)C(=O)O (stereo not drawn) [Example 11 (99), 2-ethoxy-3-{[4-(4-methoxyquinoline-2-yl)methyloxy]phenyl}propanoic acid]
- Emax at 0.1 µM (human PPARα receptor): 25.2%
- Emax at 1 µM (human PPARα receptor): 64.3%
- Emax at 10 µM (human PPARα receptor): 68.6%
- Emax at 0.1 µM (human PPARγ receptor): 75.2%
- Emax at 1 µM (human PPARγ receptor): 115%
- Emax at 10 µM (human PPARγ receptor): 106%

Compound: CCOC(Cc1ccc(OCc2cnc3c(C(F)(F)F)cccc3c2OC(C)C)cc1)C(=O)O (stereo not drawn) [Example 14 (86), 2-ethoxy-3-{[4-(4-isopropoxy-8-trifluoromethylquinoline-3-yl)methyloxy]phenyl}propanoic acid]
- Emax at 0.1 µM (human PPARα receptor): 0.3%
- Emax at 1 µM (human PPARα receptor): 0.3%
- Emax at 10 µM (human PPARα receptor): 2.1%
- Emax at 0.1 µM (human PPARγ receptor): 19.6%
- Emax at 1 µM (human PPARγ receptor): 76%
- Emax at 10 µM (human PPARγ receptor): 132%

Compound: CCOC(=O)C(Cc1ccc(OCc2cnc3ccc(OC)cc3c2OC(C)C)cc1)OCC (stereo not drawn) [Example 1 (101), ethyl 2-ethoxy-3-{[4-(4-isopropoxy-6-methoxyquinoline-3-yl)methyloxy]phenyl}propanoate]
- Emax at 0.1 µM (human PPARα receptor): 0.2%
- Emax at 1 µM (human PPARα receptor): 0.9%
- Emax at 10 µM (human PPARα receptor): 28.7%
- Emax at 0.1 µM (human PPARγ receptor): 98.6%
- Emax at 1 µM (human PPARγ receptor): 127%
- Emax at 10 µM (human PPARγ receptor): 102%

Compound: CCOC(Cc1cccc(OCc2cnc3ccc(OC)cc3c2OC(C)C)c1)C(=O)O (stereo not drawn) [Example 20 (114), 2-ethoxy-3-{[3-(4-isopropoxy-6-methoxyquinoline-3-yl)methyloxy]phenyl}propanoic acid]
- Emax at 0.1 µM (human PPARγ receptor): 9.3%
- Emax at 1 µM (human PPARγ receptor): 91%
- Emax at 10 µM (human PPARγ receptor): 110%

Compound: CCOC(Cc1ccc(OCc2cnc3c(Cl)cccc3c2OC(C)C)cc1)C(=O)O (stereo not drawn) [Example 13 (76), 3-{[4-(8-chloro-4-isopropoxyquinoline-3-yl)methyloxy]phenyl}-2-ethoxypropanoic acid]
- Emax at 0.1 µM (human PPARα receptor): 0.3%
- Emax at 1 µM (human PPARα receptor): 0.9%
- Emax at 10 µM (human PPARα receptor): 41.1%
- Emax at 0.1 µM (human PPARγ receptor): 104%
- Emax at 1 µM (human PPARγ receptor): 140%
- Emax at 10 µM (human PPARγ receptor): 130%

Compound: CCOC(Cc1ccc(OCc2ccc3ncccc3c2)cc1)C(=O)O (stereo not drawn) [Example 10 (32), 2-ethoxy-3-{[4-(quinoline-6-yl)methyloxy]phenyl}propanoic acid]
- PPARα agonist activity, relative activity (human PPARα receptor; 0.1 μM compound): 0.2
- PPARα agonist activity, relative activity (human PPARα receptor; 1 μM compound): 0.3
- PPARα agonist activity, relative activity (human PPARα receptor; 10 μM compound): 50.1
- PPAR γ agonist activity, relative activity (human PPARγ receptor; 0.1 μM compound): 1.0
- PPAR γ agonist activity, relative activity (human PPARγ receptor; 1 μM compound): 20.8
- PPAR γ agonist activity, relative activity (human PPARγ receptor; 10 μM compound): 123.9

Compound: CCOC(=O)C(Cc1cccc(OCc2cnc3ccc(OC)cc3c2OC(C)C)c1)C(=O)OCC [Example 27 (128), diethyl{[3-(4-isopropoxy-6-methoxyquinoline-3-yl)methyloxy]phenyl}methylmalonate hydrochloride]
- Emax at 0.1 µM (human PPARγ receptor): 1.2%
- Emax at 1 µM (human PPARγ receptor): 2.1%
- Emax at 10 µM (human PPARγ receptor): 42.5%

Compound: CNC(=O)/C(=C/c1ccc(OCc2cnc3ccc(OC)cc3c2OC(C)C)cc1)C(C)=O [Example 25 (144), 2-{[4-(4-isopropoxy-6-methoxyquinoline-3-yl)methyloxy]phenylmethylene}-3-oxobutanoic acid N-methylamide hydrochloride]
- Emax at 0.1 µM (human PPARγ receptor): 0.7%
- Emax at 1 µM (human PPARγ receptor): 1.9%
- Emax at 10 µM (human PPARγ receptor): 6.2%

Compound: CCOC(Cc1ccc(OC)c(OCc2cnc3ccc(OC)cc3c2OC(C)C)c1)C(=O)O (stereo not drawn) [Example 21 (118), 2-ethoxy-3-{[3-(4-isopropoxy-6-methoxyquinoline-3-yl)methyloxy]-4-methoxyphenyl}propanoic acid]
- Emax at 0.1 µM (human PPARγ receptor): 1.4%
- Emax at 1 µM (human PPARγ receptor): 1.9%
- Emax at 10 µM (human PPARγ receptor): 22.4%

Compound: COC(=O)C(Cc1ccc(OCc2cnc3ccc(OC)cc3c2OC(C)C)cc1)C(=O)OC [Example 22 (120), dimethyl{[4-(4-isopropoxy-6-methoxyquinoline-3-yl)methyloxy]phenyl}methylmalonate hydrochloride]
- Emax at 0.1 µM (human PPARγ receptor): 3.5%
- Emax at 1 µM (human PPARγ receptor): 62.3%
- Emax at 10 µM (human PPARγ receptor): 108%

Compound: CCC(=O)C(Cc1ccc(OCc2cnc3ccc(OC)cc3c2OC(C)C)cc1)C(=O)OC (stereo not drawn) [Example 23 (137), methyl 2-{[4-(4-isopropoxy-6-methoxyquinoline-3-yl)methyloxy]phenylmethyl}-3-oxopentanoate hydrochloride]
- Emax at 0.1 µM (human PPARγ receptor): 2.8%
- Emax at 1 µM (human PPARγ receptor): 30.5%
- Emax at 10 µM (human PPARγ receptor): 63.1%
